Source: patent US20240166596A1, “SULFAMOYL BENZENE DERIVATIVES AND USES THEREOF” (AphioTx Inc., priority 2021, published 2024)
Values belong to the compound of their own block, whether it stands above or below them.

Columns and labels:
Panx1 channel = target: T1, Panx1 channel (Mus musculus, UniProt Q9JIP4); assay: YO-PRO-1 dye uptake assay in BV-2 microglia-like cells (BzATP stimulation); format: cell-based; details: BV-2 cells; pre-treatment; concentration not given
T1 construct: endogenous in cells; host or cells: BV-2 microglia-like cells
T1 sequence (Q9JIP4 whole entry): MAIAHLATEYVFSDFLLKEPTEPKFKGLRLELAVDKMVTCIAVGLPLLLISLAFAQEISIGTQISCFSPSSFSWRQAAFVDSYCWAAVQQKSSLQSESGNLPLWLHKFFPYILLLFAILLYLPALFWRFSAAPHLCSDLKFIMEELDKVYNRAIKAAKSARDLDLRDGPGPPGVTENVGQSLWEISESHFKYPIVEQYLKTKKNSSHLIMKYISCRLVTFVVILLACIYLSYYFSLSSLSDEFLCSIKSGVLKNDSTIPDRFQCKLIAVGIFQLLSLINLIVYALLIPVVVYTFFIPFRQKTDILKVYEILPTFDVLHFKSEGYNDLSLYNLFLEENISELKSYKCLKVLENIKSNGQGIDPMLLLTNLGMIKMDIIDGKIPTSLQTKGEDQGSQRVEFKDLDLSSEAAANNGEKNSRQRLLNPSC
Protocol: After plating into 96 well plates, cell culture media was removed and BV-2 cells were incubated in extracellular solution (ECS) (140 mM NaCl, 4.5 mM KCl, 1.3 mM CaCl2, 10 mM HEPES, and 33 mM glucose; pH7.35, osmolarity 315 mOsm) containing YO-PRO-1 dye (2.5 μM, Invitrogen). After a 5 minute baseline recording, cells were stimulated with 3′-O-(4-benzoyl)benzoyl adenosine 5′-triphosphate (BzATP) (150 μM, Toronto Research Chemicals) and dye-uptake was recorded for 30 minutes. Cell viability was assessed immediately after the 30 minute recording by application of ionomycin (1 μM, Sigma). […] YO-PRO-1 fluorescent emission (491/509) was detected using a FilterMax F5 plate reader (Molecular Devices). Drugs used include (−)-norepinephrine (100 pM-1 μM, Sigma), probenecid (1 mM, Life Technologies), and Compound 1 (10 nM, Derksen et al). Drugs were bath applied in ECS containing YO-PRO-1 dye and incubated at 37° C. for 10 minutes prior to BzATP stimulation. Fluorescent emission at 30 minutes post-BzATP was calculated as an average of the entire imaging field as percent change from baseline, and responses at 30 minutes were averaged over multiple independent experiments. Individual traces of BV-2 YO-PRO-1 dye uptake were taken at 10 minute intervals and represent the average response of all BV-2 cells in the recorded view from a subset of experiments.
BV-2 microglia-like cells were maintained in DMEM (Gibco) containing 5% fetal bovine serum (Gibco) and 1% penicillin-streptomycin (Gibco) with 5% CO2.
The compounds tested were designed to more readily penetrate the blood brain barrier and were therefore predicted to require a lower dose to produce similar effects. Prior to testing the compounds in animals, the compounds were first tested in BV2 microglia-like cells using the YO-PRO-1 Dye Uptake Assay. By using this assay, Panx1 channel activity in response to BzATP stimulation of P2X7, an upstream receptor that causes Panx1 pore formation can be assessed. YO-PRO-1 is a large molecular weight dye that can only enter the cell through large pore ion channels such as Panx1, therefore its uptake correlates with Panx1 channel opening. BzATP stimulation causes a significant increase in YO-PRO-1 dye uptake in cells pre-treated with ECS and vehicle solution (0.1% DMSO) (FIG. 1, B).

[1] = target: T2, rPanx1 (Rattus norvegicus Pannexin-1) expressed in 293T cells (Rattus norvegicus, UniProt P60570); assay: Whole-cell patch-clamp of Panx1 currents in transfected 293T cells; format: cell-based, Homo sapiens
T2 construct: expressed in transfected cells; host or cells: Human embryonic kidney-293T cells (ATCC), transient Lipofectamine 2000 transfection
T2 sequence (P60570 whole entry): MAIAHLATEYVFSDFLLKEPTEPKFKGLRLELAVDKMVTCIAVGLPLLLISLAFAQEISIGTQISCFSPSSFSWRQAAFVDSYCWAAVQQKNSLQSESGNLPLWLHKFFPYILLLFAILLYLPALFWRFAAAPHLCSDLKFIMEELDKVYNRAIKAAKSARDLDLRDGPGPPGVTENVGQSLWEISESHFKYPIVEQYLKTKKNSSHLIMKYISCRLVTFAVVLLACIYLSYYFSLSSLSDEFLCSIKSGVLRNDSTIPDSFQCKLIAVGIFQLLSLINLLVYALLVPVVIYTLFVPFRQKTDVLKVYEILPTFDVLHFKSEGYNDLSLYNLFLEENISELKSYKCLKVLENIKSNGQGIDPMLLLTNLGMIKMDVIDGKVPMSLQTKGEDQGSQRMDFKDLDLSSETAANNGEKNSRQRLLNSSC
Protocol: To further compare the effects of probenecid, Compounds 1 and 5 on Pannexin-1 channels […] Panx-1 was expressed in embryonic kidney-293T cells (293T) and channel activity was assessed at various doses of each compound.
Rattus norvegicus Pannexin-1 (rPanx1) complementary DNA (cDNA) was cloned between BamHI and SalI sites in a pRK5 expression vector (pRK5-rPanx1). Enhanced green fluorescent protein (EGFP) plasmid (pEGFP-C1) was commercially purchased (addgene).
Human embryonic kidney-293T cells (293T) were purchased from ATCC and routinely maintained in the laboratory. Adherent 293T cells were grown in Dulbecco's modified Eagle's medium (Thermo Fisher) supplemented with 10% fetal bovine serum (Thermo Fisher) and 1% penicillin-streptomycin (10,000 U/mL; Thermo Fisher) at 37° C. in a 5% CO2 humidified growth incubator. 293T cells between the passages 6-20 were used for experiments. For patch-clamp recordings, 293T cells reaching 40-60% confluency on 35 mm culture plates were transiently transfected using Lipofectamine 2000 (Thermo Fisher) 36-48 hours before experiments, using the manufacturer's protocol. 293T cells were transfected with 2.5 μg pRK5-rPanx1 and 0.5 μg pEGFP-C1 cDNAs at a mixed ratio of 5:1 to identify positively transfected cells.
On the day of experiments, transiently transfected 293T cells overexpressing rPanx1 and EGFP cDNAs were seeded onto poly-d-lysine coated glass coverslips at least 2 hours before recordings. […] Data was acquired using Clampex (v.10) software and an Axon Digidata 1550A digitizer (Axon Instruments) at 10 kHz, with currents analyzed offline in Clampfit software (v.10.7). […]
293T cells were voltage clamped at −60 mV in whole-cell configuration and exposed to a 300 ms voltage ramp (−80 to +80 mV) before stepping back to −60 mV to record rPanx1 voltage-sensitive currents. Baseline currents were first measured in extracellular solution before perfusion of drug compounds in incrementally increasing concentrations. […]

C57BL/6J mice [2] = assay: Naloxone-precipitated morphine withdrawal, composite withdrawal score; format: in vivo; details: 50 mg/kg i.p., 60 minutes prior to naloxone
Protocol: Adult male C57BL/6J (7-9 weeks) mice were used. Mice were housed under 12/12 hour light/dark cycles with ad libitum access to food and water. Mice were randomly allocated to different test groups. All experiments were approved by the University of Calgary Animal Care Committee and are in accordance with the guidelines of the Canadian Council on Animal Care.
Morphine sulfate (MS, PCCA) prepared in 0.9% sterile saline solution was injected i.p. into male C57BLJ6J (20-30g) mice. Mice received ascending doses of morphine (i.p.) at 8 hours intervals: day 1, 10mg/kg; day 2, 20 mg/kg; day 3, 30 mg/kg; day 4, 40mg/kg. On day 5, mice received a morning injection of morphine (50 mg/kg). A subset of mice received probenecid (15, 25, and 50 mg/kg i.p., Invitrogen) or Compound 1 (0.1, 0.5 and 1 mg/kg) 1 hour following morphine. Mice then received i.p. naloxone (2 mg/kg, naloxone hydrochloride dihydrate, Sigma) 2 hours following morphine to rapidly induce opioid withdrawal. Control mice received equivalent volumes of 0.9% saline or appropriate vehicle solution (0.1% DMSO in saline) and were challenged with naloxone on day 5. Withdrawal behaviors were then scored for 30 minutes post naloxone injection. Behaviors were scored for occurrence and then scaled for severity at 5-minute intervals. Behaviors that were assigned a standardized score between 0-3 depending on severity were jumping, headshakes, wet-dog shakes, chewing/licking, and teeth chattering. Behaviors that were scored 1 point for presence during a 5-minute interval include piloerection and tremors/twitching. The mice were then weighed following the 30 minutes, and the weight difference was assigned a standardized score dependent on the weight change between 0-3 as well. The scaled and present/absent signs were compiled over the 30 minutes to produce a composite withdrawal score.
All data are presented as the mean±standard error mean (s.e.m), and each circle represents an individual animal or experiment. Tests of statistical difference were performed with GraphPad Prism 6 using either an ordinary one-way ANOVA with posthoc Dunnet test, or a two-way ANOVA with post hoc Sidak test. Sample sizes are consistent with those reported in similar studies and provide sufficient power to detect changes with the appropriate statistical analysis. For all experiments, a criterion a level was set at 0.05.

C57BL/6J mice [3] = details: background statement; pharmacological blockade of Panx1; cited from earlier work
C57BL/6J mice [4] = assay: Naloxone-precipitated morphine withdrawal, composite withdrawal score; format: in vivo; details: 50 mg/kg, 30 minutes before withdrawal
[5] = background statement; cited from earlier work

Panx1 channel activity (BzATP-stimulated YO-PRO-1 dye uptake) (Panx1 channel): significantly blocked
Compound: CN(C)S(=O)(=O)c1ccc(C(O)(C(F)(F)F)C(F)(F)F)cc1 [Compound 2, 4-(1,1,1,3,3,3-hexafluoro-2-hydroxypropan-2-yl)-N,N-dimethylbenzenesulfonamide]

Panx1 channel activity (BzATP-stimulated YO-PRO-1 dye uptake) (Panx1 channel): significantly blocked
Compound: CCCN(CCC)S(=O)(=O)c1ccc(-c2ccc3[nH]ncc3c2)cc1 [Compound 3, 4-(1H-indazol-5-yl)-N,N-dipropylbenzenesulfonamide]

Panx1 channel activity (BzATP-stimulated YO-PRO-1 dye uptake) (Panx1 channel): significantly blocked
Compound: CCCN(CCC)S(=O)(=O)c1ccc(-c2ccnc(N3CCNCC3)c2)cc1 [Compound 4]

Panx1 channel activity (BzATP-stimulated YO-PRO-1 dye uptake) (Panx1 channel): significantly blocked
Panx1 inhibitory potency relative to Probenecid (patch-clamp) ([1]; voltage ramp -80 to +80 mV, various doses): more potent
Compound: CCCN(CCC)S(=O)(=O)c1ccc(-c2cn[nH]c2)cc1 [Compound 5]

Panx1 channel activity (BzATP-stimulated YO-PRO-1 dye uptake) (Panx1 channel): significantly blocked
Compound: CCCN(CCC)S(=O)(=O)c1ccc(-c2cnc(N(C)C)nc2)cc1 [Compound 6]

Block of Panx1 (inhibition of transfected current) ([1]; maximum doses): 100%
Compound: CCCN(CCC)S(=O)(=O)c1ccc(C(=O)O)cc1 [probenecid, reference compound]
Composite withdrawal score (C57BL/6J mice [2]): significantly reduced withdrawal score
Withdrawal behaviors in mice (C57BL/6J mice [3]): ameliorated withdrawal behaviors
Withdrawal behaviors (C57BL/6J mice [4]): not effective
Solubility [5]: poor solubility
